Legend:
Type in all cases: functional
Onchocerca lienalis [1] = assay: MMV: Percent motility assay at a compound concentration of 7.8e-7 M. Activity score legend: 3: Active, 2: Moderately active; 1: Inactive, 0: Toxic; settings: at 0.78 µM
Onchocerca lienalis [2] = assay: MMV: Percent motility assay at a compound concentration of 1.25e-5 M. Activity score legend: 3: Active, 2: Moderately active; 1: Inactive, 0: Toxic; settings: at 12.5 µM
Onchocerca lienalis [3] = assay: MMV: Percent motility assay at a compound concentration of 3.1e-6 M. Activity score legend: 3: Active, 2: Moderately active; 1: Inactive, 0: Toxic; settings: at 3.1 µM
Onchocerca lienalis [4] = assay: MMV: Percent motility assay at a compound concentration of 1.9e-7 M. Activity score legend: 3: Active, 2: Moderately active; 1: Inactive, 0: Toxic; settings: at 0.19 µM

O=C(Nc1ccccc1O)c1ccc(Oc2cccc(C(=O)Nc3ccccc3O)c2)cc1
Motility (Onchocerca lienalis [1]): 100% | Motility (Onchocerca lienalis [2]): 100% | Motility (Onchocerca lienalis [3]): 100% | Motility (Onchocerca lienalis [4]): 100%

Cl.N=c1n(CCN2CCCCC2)c2ccccc2n1CC(O)c1cccc(Br)c1 (configuration not stated)
Motility (Onchocerca lienalis [1]): 100% | Motility (Onchocerca lienalis [2]): 100% | Motility (Onchocerca lienalis [3]): 100% | Motility (Onchocerca lienalis [4]): 100%

COc1cccc(O)c1CN1CCC2(CCCN(Cc3ccc(F)cc3)C2)C1 (configuration not stated)
Motility (Onchocerca lienalis [1]): 100% | Motility (Onchocerca lienalis [2]): 100% | Motility (Onchocerca lienalis [3]): 100% | Motility (Onchocerca lienalis [4]): 100%

O=C(NCc1ccco1)C1CCN(S(=O)(=O)c2ccc(Cl)cc2)CC1
Motility (Onchocerca lienalis [1]): 100% | Motility (Onchocerca lienalis [2]): 100% | Motility (Onchocerca lienalis [3]): 100% | Motility (Onchocerca lienalis [4]): 100%

COc1ccc(C(=O)Nc2ccc3nc(N4CCCCC4)cc(C)c3c2)cc1OC
Motility (Onchocerca lienalis [1]): 100% | Motility (Onchocerca lienalis [2]): 100% | Motility (Onchocerca lienalis [3]): 100% | Motility (Onchocerca lienalis [4]): 100%

FC(F)(F)c1ccc(Nc2nnnc3ccccc23)cc1
Motility (Onchocerca lienalis [1]): 100% | Motility (Onchocerca lienalis [2]): 100% | Motility (Onchocerca lienalis [3]): 100% | Motility (Onchocerca lienalis [4]): 100%

c1ccc(-c2ccc(-c3nc4ccccc4[nH]3)cc2)cc1
Motility (Onchocerca lienalis [1]): 100% | Motility (Onchocerca lienalis [2]): 66.6% | Motility (Onchocerca lienalis [3]): 100% | Motility (Onchocerca lienalis [4]): 100%

CCC(C)NCC(O)(c1ccc(Cl)cc1)c1ccc(Cl)cc1 (configuration not stated)
Motility (Onchocerca lienalis [1]): 100% | Motility (Onchocerca lienalis [2]): 100% | Motility (Onchocerca lienalis [3]): 100% | Motility (Onchocerca lienalis [4]): 100%

COc1cccc(NC(=O)Cn2c(C)c(C#N)c3ccccc32)c1
Motility (Onchocerca lienalis [1]): 100% | Motility (Onchocerca lienalis [2]): 100% | Motility (Onchocerca lienalis [3]): 100% | Motility (Onchocerca lienalis [4]): 100%

Cn1c(=O)c2cc(C(=O)NCCCN3CCCCCC3)sc2c2ccccc21
Motility (Onchocerca lienalis [1]): 100% | Motility (Onchocerca lienalis [2]): 100% | Motility (Onchocerca lienalis [3]): 100% | Motility (Onchocerca lienalis [4]): 100%

COc1ccc(CCN2CCC(CN(C)Cc3cnn(-c4ccccc4)c3)CC2)cc1
Motility (Onchocerca lienalis [1]): 100% | Motility (Onchocerca lienalis [2]): 100% | Motility (Onchocerca lienalis [3]): 100% | Motility (Onchocerca lienalis [4]): 100%

O=C(NC(c1ccccc1)c1ccc2cccnc2c1O)c1ccccc1 (configuration not stated)
Motility (Onchocerca lienalis [1]): 100% | Motility (Onchocerca lienalis [2]): 26.66% | Motility (Onchocerca lienalis [3]): 33.33% | Motility (Onchocerca lienalis [4]): 100%

COCCNC(=O)c1ccc(OC2CCN(Cc3ccc(F)c(F)c3)CC2)c(Cl)c1
Motility (Onchocerca lienalis [1]): 100% | Motility (Onchocerca lienalis [2]): 46.6% | Motility (Onchocerca lienalis [3]): 100% | Motility (Onchocerca lienalis [4]): 100%

CC(C)=CCN1CCC(C(=O)Nc2ccc(-c3nc4ccccc4[nH]3)cc2)CC1
Motility (Onchocerca lienalis [1]): 100% | Motility (Onchocerca lienalis [2]): 100% | Motility (Onchocerca lienalis [3]): 100% | Motility (Onchocerca lienalis [4]): 100%

O=C(CCc1ccco1)NC1CCN(CC2(c3ccc(Cl)cc3)CCC2)CC1
Motility (Onchocerca lienalis [1]): 100% | Motility (Onchocerca lienalis [2]): 100% | Motility (Onchocerca lienalis [3]): 100% | Motility (Onchocerca lienalis [4]): 100%

FC(F)(F)c1cccc(Nc2nc(-c3ccccc3)nc3ncccc23)c1
Motility (Onchocerca lienalis [1]): 100% | Motility (Onchocerca lienalis [2]): 100% | Motility (Onchocerca lienalis [3]): 100% | Motility (Onchocerca lienalis [4]): 100%

CCN1CCN(c2cc(C)c3cc(NC(=O)c4ccc(OC)c(OC)c4)ccc3n2)CC1
Motility (Onchocerca lienalis [1]): 100% | Motility (Onchocerca lienalis [2]): 100% | Motility (Onchocerca lienalis [3]): 100% | Motility (Onchocerca lienalis [4]): 100%

COc1ccc(CNC2CCN(c3ccc(NC(=O)c4cccc(Cl)c4)cc3)CC2)cc1OC
Motility (Onchocerca lienalis [1]): 100% | Motility (Onchocerca lienalis [2]): 100% | Motility (Onchocerca lienalis [3]): 100% | Motility (Onchocerca lienalis [4]): 100%

COCCN(C(=O)Cc1cccs1)C(C(=O)NCc1ccc(OC)cc1)c1ccc(C(C)C)cc1 (configuration not stated)
Motility (Onchocerca lienalis [1]): 100% | Motility (Onchocerca lienalis [2]): 46.6% | Motility (Onchocerca lienalis [3]): 100% | Motility (Onchocerca lienalis [4]): 100%

CC(NCc1ccccc1)c1cc(Cl)ccc1O (configuration not stated)
Motility (Onchocerca lienalis [1]): 100% | Motility (Onchocerca lienalis [2]): 100% | Motility (Onchocerca lienalis [3]): 100% | Motility (Onchocerca lienalis [4]): 100%

FC(F)(F)c1cccc(CNC2CCN(CCc3ccccc3)CC2)c1
Motility (Onchocerca lienalis [1]): 100% | Motility (Onchocerca lienalis [2]): 100% | Motility (Onchocerca lienalis [3]): 100% | Motility (Onchocerca lienalis [4]): 100%

Oc1ccc(Cl)cc1CNc1nc2ccccc2[nH]1
Motility (Onchocerca lienalis [1]): 100% | Motility (Onchocerca lienalis [2]): 66.6% | Motility (Onchocerca lienalis [3]): 100% | Motility (Onchocerca lienalis [4]): 100%

O=C(c1ccccc1F)N(Cc1ccc(Cl)cc1)c1ccccn1
Motility (Onchocerca lienalis [1]): 100% | Motility (Onchocerca lienalis [2]): 100% | Motility (Onchocerca lienalis [3]): 100% | Motility (Onchocerca lienalis [4]): 100%

COc1ccc(C(=O)Nc2ccc(Cl)cc2C(=O)Nc2ccncc2)cc1
Motility (Onchocerca lienalis [1]): 100% | Motility (Onchocerca lienalis [2]): 100% | Motility (Onchocerca lienalis [3]): 100% | Motility (Onchocerca lienalis [4]): 100%

O=C(Nc1ccc(CN2CCOCC2)cc1)c1ccc(-c2ccc(Br)cc2)o1
Motility (Onchocerca lienalis [1]): 100% | Motility (Onchocerca lienalis [2]): 100% | Motility (Onchocerca lienalis [3]): 100% | Motility (Onchocerca lienalis [4]): 100%

O=C(Nc1ccc(Cl)cc1)N1CCN(c2ccc3nncn3n2)CC1
Motility (Onchocerca lienalis [1]): 100% | Motility (Onchocerca lienalis [2]): 100% | Motility (Onchocerca lienalis [3]): 100% | Motility (Onchocerca lienalis [4]): 100%

CN(C)c1ccc(-c2nc3cc(N)ccc3[nH]2)cc1
Motility (Onchocerca lienalis [1]): 100% | Motility (Onchocerca lienalis [2]): 33.33% | Motility (Onchocerca lienalis [3]): 66.66% | Motility (Onchocerca lienalis [4]): 100%

O=C(CSc1ccc2nnc(-c3cccc(F)c3)n2n1)Nc1ccc2c(c1)OCO2
Motility (Onchocerca lienalis [1]): 100% | Motility (Onchocerca lienalis [2]): 100% | Motility (Onchocerca lienalis [3]): 100% | Motility (Onchocerca lienalis [4]): 100%

Cc1c(C)n(Cc2ccc(F)cc2)c2ccc(C(=O)NCc3ccco3)cc12
Motility (Onchocerca lienalis [1]): 100% | Motility (Onchocerca lienalis [2]): 100% | Motility (Onchocerca lienalis [3]): 100% | Motility (Onchocerca lienalis [4]): 100%

CCN(CC)c1ccc(NC(=O)c2cccs2)cc1
Motility (Onchocerca lienalis [1]): 100% | Motility (Onchocerca lienalis [2]): 100% | Motility (Onchocerca lienalis [3]): 100% | Motility (Onchocerca lienalis [4]): 100%

CCCCNCC(O)(c1ccc(Cl)cc1)c1ccc(Cl)cc1
Motility (Onchocerca lienalis [1]): 100% | Motility (Onchocerca lienalis [2]): 100% | Motility (Onchocerca lienalis [3]): 100% | Motility (Onchocerca lienalis [4]): 100%

CCn1c(SCC(=O)Nc2cc(C(F)(F)F)ccc2Cl)nc2ccccc2c1=O
Motility (Onchocerca lienalis [1]): 100% | Motility (Onchocerca lienalis [2]): 100% | Motility (Onchocerca lienalis [3]): 100% | Motility (Onchocerca lienalis [4]): 100%

Cc1ccc(Cn2c(N3CCC(C(=O)NCc4cccs4)CC3)nc3ccccc32)cc1
Motility (Onchocerca lienalis [1]): 100% | Motility (Onchocerca lienalis [2]): 100% | Motility (Onchocerca lienalis [3]): 100% | Motility (Onchocerca lienalis [4]): 100%

O=C(Nc1ccsc1C(=O)NC1CCCCC1)c1ccc(F)cc1
Motility (Onchocerca lienalis [1]): 100% | Motility (Onchocerca lienalis [2]): 100% | Motility (Onchocerca lienalis [3]): 100% | Motility (Onchocerca lienalis [4]): 100%

O=C(Nc1ccc(Cl)cc1C(=O)Nc1ccncc1)c1ccc(Cl)cc1Cl
Motility (Onchocerca lienalis [1]): 100% | Motility (Onchocerca lienalis [2]): 100% | Motility (Onchocerca lienalis [3]): 100% | Motility (Onchocerca lienalis [4]): 100%

O=C(Nc1cccc(C(F)(F)F)c1)c1cc(Cl)ccc1O
Motility (Onchocerca lienalis [1]): 100% | Motility (Onchocerca lienalis [2]): 0% | Motility (Onchocerca lienalis [3]): 53.33% | Motility (Onchocerca lienalis [4]): 100%

CCOc1cccc2sc(N(Cc3cccnc3)C(=O)C3CCCCC3)nc12
Motility (Onchocerca lienalis [1]): 100% | Motility (Onchocerca lienalis [2]): 100% | Motility (Onchocerca lienalis [3]): 100% | Motility (Onchocerca lienalis [4]): 100%

CCN(CC)c1cc(C)c2cc(NC(=O)c3cccc(OC)c3)ccc2n1
Motility (Onchocerca lienalis [1]): 100% | Motility (Onchocerca lienalis [2]): 100% | Motility (Onchocerca lienalis [3]): 100% | Motility (Onchocerca lienalis [4]): 100%

CC(C)(C)CC(C)(C)NCC(O)COc1ccc2c(c1)CCC2.Cl (configuration not stated)
Motility (Onchocerca lienalis [1]): 100% | Motility (Onchocerca lienalis [2]): 100% | Motility (Onchocerca lienalis [3]): 100% | Motility (Onchocerca lienalis [4]): 100%

CCOc1ccc(/C=C/c2nc(=O)c3ccccc3o2)cc1
Motility (Onchocerca lienalis [1]): 100% | Motility (Onchocerca lienalis [2]): 100% | Motility (Onchocerca lienalis [3]): 100% | Motility (Onchocerca lienalis [4]): 100%

O=C(Nc1ccccc1O)c1ccc(-c2ccc(Cl)cc2Cl)o1
Motility (Onchocerca lienalis [1]): 100% | Motility (Onchocerca lienalis [2]): 100% | Motility (Onchocerca lienalis [3]): 100% | Motility (Onchocerca lienalis [4]): 100%

O=C(Nc1nc(-c2ccccn2)cs1)c1ccccc1Br
Motility (Onchocerca lienalis [1]): 100% | Motility (Onchocerca lienalis [2]): 0% | Motility (Onchocerca lienalis [3]): 60% | Motility (Onchocerca lienalis [4]): 100%

CC(O)(c1ccc(Cl)cc1)C(CN1CCCCC1)c1ccccc1.Cl (configuration not stated)
Motility (Onchocerca lienalis [1]): 100% | Motility (Onchocerca lienalis [2]): 66.6% | Motility (Onchocerca lienalis [3]): 100% | Motility (Onchocerca lienalis [4]): 100%

CCCCc1ccc(NS(=O)(=O)c2cc3c4c(c2)CCN4C(=O)CC3)cc1
Motility (Onchocerca lienalis [1]): 100% | Motility (Onchocerca lienalis [2]): 100% | Motility (Onchocerca lienalis [3]): 100% | Motility (Onchocerca lienalis [4]): 100%

CCOc1ccc(-c2nc(NC(=O)c3cccc(S(C)(=O)=O)c3)sc2C)cc1
Motility (Onchocerca lienalis [1]): 100% | Motility (Onchocerca lienalis [2]): 100% | Motility (Onchocerca lienalis [3]): 100% | Motility (Onchocerca lienalis [4]): 100%

CCOc1ccccc1CNC(=O)C1c2ccccc2C(=O)N(CC(C)C)C1c1cccs1 (configuration not stated)
Motility (Onchocerca lienalis [1]): 100% | Motility (Onchocerca lienalis [2]): 100% | Motility (Onchocerca lienalis [3]): 100% | Motility (Onchocerca lienalis [4]): 100%

COc1ccccc1N1CCN(C(CNS(=O)(=O)c2ccc(Cl)cc2)c2cccnc2)CC1 (configuration not stated)
Motility (Onchocerca lienalis [1]): 100% | Motility (Onchocerca lienalis [2]): 100% | Motility (Onchocerca lienalis [3]): 100% | Motility (Onchocerca lienalis [4]): 100%

CCCc1c(C)nc2ccccc2c1O
Motility (Onchocerca lienalis [1]): 100% | Motility (Onchocerca lienalis [2]): 100% | Motility (Onchocerca lienalis [3]): 100% | Motility (Onchocerca lienalis [4]): 100%

COc1ccc(C2Sc3ccccc3N=C3C2=C(O)c2ccccc23)cc1 (configuration not stated)
Motility (Onchocerca lienalis [1]): 100% | Motility (Onchocerca lienalis [2]): 100% | Motility (Onchocerca lienalis [3]): 100% | Motility (Onchocerca lienalis [4]): 100%

CCN(CC)CCCNc1nc(-c2ccc(Cl)cc2)nc2ccccc12
Motility (Onchocerca lienalis [1]): 100% | Motility (Onchocerca lienalis [2]): 66.6% | Motility (Onchocerca lienalis [3]): 100% | Motility (Onchocerca lienalis [4]): 100%

CN1c2ccccc2N(C)C1c1ccc2c(c1)OCO2
Motility (Onchocerca lienalis [1]): 100% | Motility (Onchocerca lienalis [2]): 100% | Motility (Onchocerca lienalis [3]): 100% | Motility (Onchocerca lienalis [4]): 100%

CC1CCCCN1CCCNC(=O)c1ccc2c(c1)sc1nc(-c3ccc(F)cc3)cn12 (configuration not stated)
Motility (Onchocerca lienalis [1]): 100% | Motility (Onchocerca lienalis [2]): 80% | Motility (Onchocerca lienalis [3]): 100% | Motility (Onchocerca lienalis [4]): 100%

C=C(C)CCC(C)N1CCC(N2CCC(C(=O)NCCc3ccccc3)CC2)CC1 (configuration not stated)
Motility (Onchocerca lienalis [1]): 100% | Motility (Onchocerca lienalis [2]): 100% | Motility (Onchocerca lienalis [3]): 100% | Motility (Onchocerca lienalis [4]): 100%
